Test results published in patent publication US20130231296A1, “NEW DRUG COMBINATIONS FOR THE TREATMENT OF MALARIA” (Bioagency AG, priority 2010, published 2013).
Where two headings read alike, the source gives them in different places.

How the values were obtained:
[1] = system: P. falciparum 3D7; assay: in vitro inhibition of parasite growth by [3H] hypoxanthine incorporation, drugs alone; assay type: cell-based; conditions: Plasmodium falciparum; for IC50: 3D7, P. falciparum 3D7 (chloroquine sensitive)
Procedure: (§1) 1. Initial determination of the in vitro efficacy profile (IC50/IC90) of FOS and PIP against a drug sensitive and a drug resistant strain of Plasmodium falciparum. P. falciparum 3D7 is chloroquine sensitive, P. falciparum K1 is insensitive to chloroquine
(§2) in vitro inhibition of parasite growth was assessed by the incorporation of [3H] hypoxanthine, including chloroquine (CQ) and artesunate (ASN) as positive control drugs.
(§3) The first set of in vitro experiments established the IC50 values of the drugs alone, followed by Fixed Ratio Combination assays of FOS+PIP with FOS+CND as a control combination. Chloroquine and artesunate were included in all assays to ensure the validity of the test.
(§4) The first sets of experiments were carried out to establish the IC50 and IC90 values of the drugs on their own. The drugs were evaluated in 3 separate experiments (see Tables 1 & 2)

[2] = system: P. falciparum K1; assay: as above; assay type: cell-based; conditions: Plasmodium falciparum; for IC50: K1, P. falciparum K1 (insensitive to chloroquine)
Procedure: as §1, §2, §3, §4

[3] = 3D7, P. falciparum 3D7, Experiment 1
[4] = 3D7, P. falciparum 3D7, Experiment 2
[5] = 3D7, P. falciparum 3D7, Experiment 3

IC50 ([2]; Experiment 1, read-out: IC50) [ng/mL] | IC50 ([2]; Experiment 2, read-out: IC50) [ng/mL] | IC50 ([2]; Experiment 3, read-out: IC50) [ng/mL] | IC90 ([2]; K1, P. falciparum K1, Experiment 1, read-out: IC90) [ng/mL] | IC90 ([2]; K1, P. falciparum K1, Experiment 2, read-out: IC90) [ng/mL] | IC90 ([2]; K1, P. falciparum K1, Experiment 3, read-out: IC90) [ng/mL] | Structure (SMILES) | IC50 ([1]; Experiment 1) [ng/mL] | IC50 ([1]; Experiment 2) [ng/mL] | IC50 ([1]; Experiment 3) [ng/mL] | IC90 [1, 3] [ng/mL] | IC90 [1, 4] [ng/mL] | IC90 [1, 5] [ng/mL] | IC50 ([2]; Experiment 1) [ng/mL] | IC50 ([2]; Experiment 2) [ng/mL] | IC50 ([2]; Experiment 3) [ng/mL] | IC90 ([2]; K1, P. falciparum K1, Experiment 1) [ng/mL] | IC90 ([2]; K1, P. falciparum K1, Experiment 2) [ng/mL] | IC90 ([2]; K1, P. falciparum K1, Experiment 3) [ng/mL]
20 | 20 | 10 | 60 | 50 | 20 | Clc1ccc2c(N3CCN(CCCN4CCN(c5ccnc6cc(Cl)ccc56)CC4)CC3)ccnc2c1 [PIP, 7-chloro-4-[4-[3-[4-(7-chloroquinolin-4-yl)piperazin-1-yl]propyl]piperazin-1-yl]quinoline] | 10 | 6 | 10 | 18 | 20 | 10 |  |  |  |  |  | 
 |  |  |  |  |  | C[C@H]1[C@H](OC(=O)CCC(=O)O)O[C@@H]2O[C@@]3(C)CC[C@H]4[C@H](C)CC[C@@H]1[C@@]24OO3 [ASN, Artesunate] | 1.9 | 2 | 0.8 | 7 | 2 | 2 | 5 | 2 | 2 | 6 | 3 | 4
